Legend:
[1] = test system: canonical NF-κB signaling pathway (BIOCARTA_NFKB_PATHWAY); assay: Gene-Set Enrichment Analysis of L1000 profiles from macrophages treated with LPS; assay type: cell-based; settings: primary human macrophages, LPS versus vehicle control; L1000 inferred profiles; 512 gene sets tested; p<0.001
Procedure: The expression levels of 1,000 cluster centroid transcripts were measured in primary human macrophages following treatment with lipopolysaccharide (LPS) or vehicle control, and used to create gene-expression profiles composed of expression levels for 22,268 transcripts, according to the L1000 methods described in Example IV.
LPS is known to be a potent activator of the NF-KB transcription-factor complex (Qin et al., “LPS induces CD40 gene expression through the activation of NF-κB and STAT-1a in macrophages and microglia” Blood 106: 3114-3122 2005).

[2] = test system: histone-deacetylase (HDAC) inhibitor query signature; assay: Original Connectivity Map (Affymetrix microarrays) queried with an HDAC-inhibitor query signature; assay type: cell-based, human; settings: published HDAC-inhibitor query signature (Glaser et al.), n=12, p-value<0.001, highest score
Excerpt: The term “Connectivity Map” as used herein, refers to a public database of transcriptome-wide gene-expression profiles derived from cultured human cells treated with a plurality of perturbagens, and pattern-matching algorithms for the scoring and identification of significant similarities between those profiles and external gene-expression data, as described by Lamb et al., “The Connectivity Map: using gene-expression signatures to connect small molecules, genes and disease”. Science 313:1929 (2006). Build02 of the Connectivity Map contains 7,056 full-transcriptome gene-expression profiles generated with Affymetrix high-density oligonucleotide microarrays representing the biological effects of 1,309 small-molecule perturbagens, and is available at broadinstitute.org/cmap.
The term “enrichment score” as used herein, refers to a measure of the similarity of the biological effects of a perturbagen used to generate a query signature with those of a perturbagen represented in the Connectivity Map based upon the gene-expression profiles of multiple independent treatments with that perturbagen. […]

[3] = test system: histone-deacetylase (HDAC) inhibitor query signature; assay: L1000 analog of Connectivity Map (1,000 landmark transcripts by LMF plus inference) queried with an HDAC-inhibitor query signature; assay type: cell-based, human; settings: L1000 dataset, MCF7 cells; published HDAC-inhibitor query signature (Glaser et al.); n=8, p-value<0.001; highest scoring perturbagen
Excerpt: This example described one method for the generation of transcriptome-wide gene-expression profiles using measurement of the expression levels of a sub-transcriptome number of cluster centroid landmark transcripts. The present method uses the LMF moderate multiplex gene-expression analysis platform described by Peck et al. (“A method for high-throughput gene expression signature analysis” Genome Biology 7:R61 2006), the Luminex FlexMAP 3D optically-addressed microspheres and flow-cytometric detection system, 1,000 cluster centroid landmark transcripts (and corresponding gene-specific sequences) validated for LMF from Example III (above), a corresponding dependency matrix from Example III (above), 50 empirically-determined invariant transcripts with expression levels spanning the range of those observed, and 1,050 barcode sequences developed. The FlexMAP 3D system allows simultaneous quantification of 500 distinct analytes in samples arrayed in the wells of a 384-well plate. […]
MCF7 cells were treated with small molecules and corresponding vehicles in 384-well plates. […] The captured amplicons were labeled with phycoerythrin and the resulting microsphere populations were analyzed using a FlexMAP 3D instrument in accordance with the manufacturer's instructions. […]

Compound	GSEA score of the BIOCARTA_NFKB_PATHWAY gene set (23 members) [1]	enrichment score [2]	enrichment score [3]
lipopolysaccharide [LPS]	highest score of all gene sets tested	–	–
O=C(CCCCCCC(=O)Nc1ccccc1)NO [vorinostat]	–	0.973	0.921
